Experimental data as given in patent EP0989983B1 (SCHERING CORPORATION, priority 1997, dated 1998).
“And” between values parts separate entries of the source, which are not always exact repeats. Equal entries are not always repeated.

The compounds below were run against farnesyl protein transferase (Homo sapiens, UniProt P49354+P49356) (assay: FPT IC50, inhibition of farnesyl protein transferase, in vitro enzyme assay (procedure of WO 95/10516)). Conditions: several values in a cell are repeat determinations, read-out: FPT C50.
Format: biochemical
Experimental: FPT IC50 (inhibition of farnesyl protein transferase, in vitro enzyme assay). and COS Cell IC50 (Cell-Based Assay) were determined following the assay procedures described in WO 95/10516, published April 20, 1995. GGPT IC50 (inhibition of geranylgeranyl protein transferase, in vitro enzyme assay), Cell Mat Assay, and anti-tumor activity (in vivo anti-tumor studies) could be determined by the assay procedures described in WO 95/10516. The disclosure of WO 95/10516 is incorporated herein by reference thereto.

IC50 | SMILES
> 150 nM | O=C(NCCCN1CCCC1=O)C1CN(C2c3ncc(Br)cc3CCc3cc(Cl)cc(Br)c32)CCN1 (stereo not drawn) [Compound 216, 4-(3,10-DIBROMO-8-CHLORO-6,11-DIHYDRO-5H-BENZO[5,6] CYCLOHEPTA[1,2-b]PYRIDIN-11-YL)-N-[3-(2-OXO-1-PYRROLIDINYL)PROPYL]-2-PIPERAZINECARBOXAMIDE]
7.2 nM and 6.7 nM | O=C(NCCc1c[nH]cn1)C1CN(C2c3ccc(Cl)cc3CCc3cc(Br)cnc32)CCN1C(=O)NC1CCCCC1 (stereo not drawn) [Compound 227]

SMILES | IC50
COCC(=O)N1CCN(C2c3ncc(Br)cc3CCc3cc(Cl)cc(Br)c32)CC1C(=O)NCCCN1CCCC1=O (stereo not drawn) [Compound 218] | 48 nM
